Legend:
Type in all cases: cell-based, HBV
[1] = test system: HBs proteins; assay: ELISA of HBs proteins in virion fraction of medium (sucrose gradient); details: 40-46% sucrose fraction
Experimental: (§1) FIG. 3D: Histogram of the area under the averaged peaks of the densitometric tracing of the gel in FIG. 3B. […] Equal volumes of the indicated samples were tested for HBV envelope antigens using the enzyme-linked imminosorbent assay (ELISA) method. Samples of unfractionated medium (FIGS. 4A, 4B and 4C) or partially purified virus (FIGS. 4D, 4E and 4F) from 3-day cultures were tested for HBV SHBs ("S) (FIGS. 4A and 4D), LHBs: "PreS1" (FIGS. 4B and 4E) or MHBs "PreS2" (FIGS. 4C and 4F) epitopes. Cultures were maintained in the indicated concentrations of NBDNJ, expressed in millimolar units and shown along the X axis.
(§2) Detection of HBV proteins by the Enzyme Linked Immunoabsorbant assay (ELISA).
Monoclonal antibodies used herein are well-known and are described by Heerman et al., J. Virol. 52, 396-402 (1984), for antibody to PreS1 (MA 18/7); Heerman et al., Intervirology 28: 14-21 (1987), for antibody to PreS2 (Q 19/10), see also Gerlich and Bruss, Molecular Biology of Hepatitis B Virus, ed. […]
Bound antigen was detected by incubation with peroxidase conjugated goat anti-HBs antibody (Behring) followed by development in orthophenylenediamine (0.33 mg/ml PBS-peroxide solution). Optical densities were read in a Behring plate reader. Tests on purified virus and total medium were conducted over a series of sample dilutions to insure proper quantification. […]

[2] = test system: LHBs (PreS1) antigen; assay: ELISA of LHBs (PreS1) antigen in unfractionated culture medium of 2.2.15 cells
Experimental: as §1, §2
Monoclonal antibodies used herein are well-known and are described by Heerman et al., J. Virol. […]
(§3) Bound antigen was detected by incubation with peroxidase conjugated goat anti-HBs antibody (Behring) followed by development in orthophenylenediamine (0.33 mg/ml PBS-peroxide solution). Optical densities were read in a Behring plate reader. Tests on purified virus and total medium were conducted over a series of sample dilutions to insure proper quantification.
(§4) To distinguish between these possibilities, the amount and nature of envelope antigens in the culture medium was determined by both ELISA and Western analysis. […]

[3] = test system: LHBs (PreS1); assay: Western blot of LHBs in sucrose gradient virion fraction; details: Western blot densitometry, FIG. 5C vs 5B lane 2
Experimental: (§5) Polyethylene glycol (PEG) precipitates of culture medium (FIG. 5A) or partly purified virions, HBs filaments and spheres from untreated (FIG. 5B) and NBDNJ treated (FIG. 5C) cultures were resolved by SDS-PAGE (13.5% acrylamide), transferred to immobilin paper and incubated with PreS1 and PreS2 specific monoclonal antibody.
(§6) Samples were dissolved in loading buffer, resolved by electrophoresis through 13.5% SDS polyacrylamide gels (SDS-PAGE) and transferred to PVDF (Millipore) membranes and blocked with 5% powdered milk, as in Gultekin and Heerman, Analytical Biochem. 172, 320-329 (1989). After incubation with primary antibody overnight at room temperature in 1% bovine serum albumin (BSA) in TNE and second antibody (peroxidase conjugated goat anti-mouse IgG serum) for 1 hour in TNE at room temperature, membranes were developed in peroxide-diaminobenzidine (Sigma) PBS, as described in the manufacturer's instructions.
(§7) The ELISA results were confirmed by Western blot analysis of fractions from the sucrose gradient containing either intact virus, filaments or spheres (FIGS. 5B, from untreated cultures, and 5C, from NBDNJ treated cultures). […]
(§8) Fractions distal to the virion containing fractions (near the bottom of the gradient) were resolved in lane 1 to show specificity of the antibody. […] The images shown in FIGS. 5B and 5C) were quantified by densitometry.

[4] = test system: MHBs (PreS2) antigen; assay: ELISA of MHBs (PreS2) antigen in unfractionated culture medium of 2.2.15 cells
Experimental: as §1, §2
Monoclonal antibodies used herein are well-known and are described by Heerman et al., J. Virol. 52, 396-402 (1984), for antibody to PreS1 (MA 18/7); Heerman et al., Intervirology 28: 14-21 (1987), for antibody to PreS2 (Q 19/10), see also Gerlich and Bruss, Molecular Biology of Hepatitis B Virus, ed. A. McLachlan, CRC Press, 109-144 (1992), and in Hepatitis B Vaccines in Clinical Practice, ed. R. W. Ellis, Marcel Dekker, Inc., pp. 41-82 (1992); and Heerman et al., in Viral Hepatitis and Liver Disease, ed. Zuckermann, A. R. Liss, 697-701 (1988), for antibody to S (C20-2).].
Samples were incubated in microtiter wells coated (overnight at 4° C.) with monoclonal antibodies specific for the LHBs, MHBs or SHBs epitopes and blocked with 1% BSA in PBS. After incubation with virus samples in for 1 hour (37° C.), plates were washed 4 times with PBS/0.1% Tween 20 non-ionic detergent.
as §3, §4

[5] = test system: MHBs (PreS2); assay: Western blot of MHBs in sucrose gradient fractions
Experimental: as §5, §6, §7, §8

CCCCN1C[C@H](O)[C@@H](O)[C@H](O)[C@H]1CO [NBDNJ, N-butyl-1,5-dideoxy-1,5-imino-D-glucitol]
HBs proteins in virion samples from medium ([1]; NBDNJ 2.25 mM (approximately 500 μg/ml)): virtually no detectable HBs proteins
HBs proteins in virion samples from medium ([1]; NBDNJ 4.5 mM (approximately 1000 μg/ml)): virtually no detectable HBs proteins
effect upon total amount of LHBs (PreS1) antigen in medium [2]: no significant effect
decrease of LHBs in virion samples compared to untreated [3]: approximately 4 fold
decrease in the amount of MHBs antigen in medium (in words) ([4]; 1000 μg/ml NBDNJ, 2.2.15 cells): two-fold decrease
decrease in total amount of MHBs (PreS2) antigen in medium ([4]; highest NBDNJ concentration, 4.5 mM or approximately 1000 μg/ml): approximately 2.5 fold
total amount of MHBs (PreS2) antigen in medium (in words) ([4]; unfractionated medium, 2.2.15 cells): modest, dose-dependentdecrease
decrease of MHBs in virion samples compared to untreated ([5]; Western blot densitometry, FIG. 5C lane 2 vs FIG. 5B lane 2): 12 fold
decrease in MHBs (PreS2 epitope) (in words) ([5]; medium of NBDNJ treated cultures, FIGS. 5B and 5C): particularly severe

From patent US6037351A, “Method of inhibiting hepatitis B virus” (priority 1996, dated 2000)
